Experiments:
Test in all cases: X-ray crystal structure, soaking, […] Å
Assay type in all cases: binding
[1] = target: T1, Chondroitinase ABC I (cABC-I) (Proteus vulgaris, UniProt P59807); details: soaked at 100 mM; pH 7.5; two molecules in active site cleft
T1 construct: native purification from P. vulgaris cells (CSC as inducer); mature monomer, 997 residues; domains 25-234, 235-617, 618-1021
T1 sequence (P59807 25-1021): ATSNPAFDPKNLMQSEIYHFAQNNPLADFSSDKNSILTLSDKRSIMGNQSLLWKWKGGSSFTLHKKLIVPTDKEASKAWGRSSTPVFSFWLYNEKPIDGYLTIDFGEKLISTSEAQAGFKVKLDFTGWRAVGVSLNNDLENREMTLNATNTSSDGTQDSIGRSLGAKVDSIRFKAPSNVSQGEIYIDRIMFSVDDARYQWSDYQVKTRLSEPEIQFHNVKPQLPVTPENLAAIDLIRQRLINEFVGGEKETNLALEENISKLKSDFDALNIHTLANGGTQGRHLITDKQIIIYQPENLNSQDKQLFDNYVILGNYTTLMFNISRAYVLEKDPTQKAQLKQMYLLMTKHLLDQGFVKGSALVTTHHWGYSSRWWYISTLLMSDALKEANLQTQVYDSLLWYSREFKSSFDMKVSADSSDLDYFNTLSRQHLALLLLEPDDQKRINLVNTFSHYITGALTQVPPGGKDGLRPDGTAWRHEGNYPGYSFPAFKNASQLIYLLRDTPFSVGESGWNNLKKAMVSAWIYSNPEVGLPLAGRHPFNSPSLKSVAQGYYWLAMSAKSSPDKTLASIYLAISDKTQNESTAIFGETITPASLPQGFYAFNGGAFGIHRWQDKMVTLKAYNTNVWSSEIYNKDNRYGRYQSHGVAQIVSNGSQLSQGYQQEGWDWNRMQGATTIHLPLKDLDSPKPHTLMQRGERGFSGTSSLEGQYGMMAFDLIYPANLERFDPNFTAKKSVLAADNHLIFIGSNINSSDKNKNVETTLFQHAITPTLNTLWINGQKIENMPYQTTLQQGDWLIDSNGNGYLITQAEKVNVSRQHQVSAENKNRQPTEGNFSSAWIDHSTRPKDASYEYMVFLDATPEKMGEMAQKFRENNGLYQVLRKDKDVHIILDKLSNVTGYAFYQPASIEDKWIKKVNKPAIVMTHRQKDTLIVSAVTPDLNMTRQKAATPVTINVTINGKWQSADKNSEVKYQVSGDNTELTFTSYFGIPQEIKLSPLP

[2] = target: T1, Chondroitinase ABC I (cABC-I); details: soaked at 100 mM; pH 7.5; three molecules in active site cleft
[3] = target: T1, Chondroitinase ABC I (cABC-I); details: soaked at 100 mM; pH 7.5; two molecules in active site cleft; remark: listed apart in the source

Structure (SMILES): CC(=O)N[C@H]1C(O)O[C@H](COS(=O)(=O)O)[C@H](O)[C@@H]1O[C@@H]1OC(C(=O)O)=C[C@H](O)[C@H]1O (stereo partly drawn) [ΔDi-6S]
- X-ray crystal structure, soaking, 1.92 Å [1]: 7EIR, cABC-I in complex with ΔDi-6S

Structure (SMILES): CC(=O)N[C@H]1C(O)O[C@H](CO)[C@H](OS(=O)(=O)O)[C@@H]1O[C@@H]1OC(C(=O)O)=C[C@H](O)[C@H]1O (stereo partly drawn) [ΔDi-4S]
- X-ray crystal structure, soaking, 1.80 Å [2]: 7EIQ, cABC-I in complex with ΔDi-4S

Structure (SMILES): CC(=O)N[C@H]1C(O)O[C@H](CO)[C@H](O)[C@@H]1O[C@@H]1OC(C(=O)O)=C[C@H](O)[C@H]1O (stereo partly drawn) [ΔDi-0S]
- X-ray crystal structure, soaking, 2.50 Å [3]: 7EIS, cABC-I in complex with ΔDi-0S

Reference: PMC8684500, “Substrate specificity of Chondroitinase ABC I based on analyses of biochemical reactions and crystal structures in complex with disaccharides” (Glycobiology, 2021)
